Tested on: Mild to Moderate Osteoarthritis of the Knee
Experiment: Phase 2 study: WOMAC (VAS) pain subscale score, target knee
Format: in vivo, human
Conditions: for WOMAC Pain Subscale Score, Avg.: Avg. of all patients; for WOMAC Pain Subscale Score, Avg. / WOMAC Pain Subscale Score: blinded, High Dose (8 spray/knee, 35 mg/knee) Cohort; for WOMAC Pain Subscale Score, cohort Avg.: low dose cohort 8.75 mg/knee BID, blinded (active + placebo), Day 1 Avg. 59.8; for difference of LS mean (8.75 mg-control), change from baseline in WOMAC pain subscale score / Change from baseline in WOMAC pain subscale score, LS mean (95% ci): Group A, 8.75 mg/knee; for difference of LS mean (8.75 mg-control), change from baseline in WOMAC pain subscale score / difference of LS mean (testing Drug-control), change from baseline in WOMAC pain subscale score: bid vs placebo; for Change from baseline in WOMAC pain subscale score, LS mean (95% ci) / Change from baseline in WOMAC pain subscale score, LS mean: bid; for difference of LS mean (testing Drug-control), change from baseline in WOMAC pain subscale score / Change from baseline in WOMAC pain subscale score, LS mean: Group C, 35 mg/knee; for WOMAC Pain Subscale Score: individual patient
Excerpt: This is a Phase 2, multicenter, randomized, double blind (within dose), placebo controlled, parallel group, proof of concept, and dose range finding study to evaluate the efficacy, safety, and PK of 2-(diethylamino)ethyl 2-(4-isobutylphenyl)propionate hydrochloride spray in adult subjects with clinically symptomatic mild to moderate OA of the knee. For subjects with bilateral knee pain, both knees will be treated, but the most symptomatic knee (i.e., the most painful knee as measured by the Western Ontario and McMaster University Osteoarthritis Index [WOMAC® 3.1] pain subscale score at Screening) will be designated as the target knee for efficacy analyses. For subjects with unilateral knee pain, only the symptomatic (target) knee will be treated.
After a Screening Period of up to 3 weeks and radiographic evaluation of the target knee joint space, a subject will be randomly assigned to 1 of 3 treatment groups in a 1:1:1 ratio with a 2:1 ratio of active:placebo within each treatment group (ie, 2 subjects to active treatment and 1 subject to placebo): • Group A: 8.75 mg 2-(diethylamino)ethyl 2-(4-isobutylphenyl)propionate/knee (2 sprays/knee, one spray to the medial surface and one spray to the lateral surface of the knee), twice daily (BID, approximately every 12 hours; n=50) or placebo (2 sprays/knee), BID (approximately every 12 hours; n=25) for a total of 4 sprays per knee per day; • Group B: 17.5 mg 2-(diethylamino)ethyl 2-(4-isobutylphenyl)propionate/knee (4 sprays/knee, one spray to the medial surface and one spray to the lateral surface of the knee, and one spray to front and one spray to the back of the knee), BID (approximately every 12 hours; n=50) or placebo (4 sprays/knee), BID (approximately every 12 hours; n=25) for a total of 8 sprays per knee per day; • Group C: 35 mg 2-(diethylamino)ethyl 2-(4-isobutylphenyl)propionate/knee (8 sprays/knee, each spray is to be applied to a different non-overlapping area around the knee, and the areas are to be uniformly distributed around the knee), BID (approximately every 12 hours; n=50) or placebo (8 sprays/knee), BID (approximately every 12 hours; n=25) for a total of 16 sprays per knee per day.
The VAS version of the WOMAC will be used for the Primary and Secondary Efficacy Endpoints. Efficacy endpoints will be assessed at Screening and Baseline (Day 1) and at the Week 2, Week 4, Week 8, and Week 12/EOS visits.
The Primary Efficacy Endpoint is the change from Baseline in the WOMAC (VAS) pain subscale score for the target knee at […] of treatment.
3.9.2. Secondary Efficacy Endpoints: • 1. Change from Baseline in the WOMAC (VAS) pain subscale score for the target knee at 2, 4, and 8 weeks of treatment; • 2. Change from Baseline in the WOMAC (VAS) stiffness subscale scores for the target knee and WOMAC (VAS) functional ability subscale scores at 2, 4, 8, and 12 weeks of treatment; • 3. Change from Baseline in the overall WOMAC (VAS) score at 2, 4, 8, and 12 weeks of treatment.
The Primary Efficacy Endpoint is change from Baseline in the WOMAC (VAS) pain subscale score for the target knee at 4 weeks of treatment, and will be analyzed using an analysis of covariance (ANCOVA). Treatment will be included as a fixed class effect and WOMAC Baseline pain subscale score as covariates. The primary comparisons of interest will be the difference between active Group A (8.75 mg 2-(diethylamino)ethyl 2-(4-isobutylphenyl)propionate/knee) and combined placebo, active Group B (17.5 mg 2-(diethylamino)ethyl 2-(4-isobutylphenyl)propionate/knee) and combined placebo, and active Group C (35 mg 2-(diethylamino)ethyl 2-(4-isobutylphenyl)propionate/knee) and combined placebo. […]

## CCN(CC)CCOC(=O)C(C)c1ccc(CC(C)C)cc1 (stereo not drawn) [2-(diethylamino)ethyl 2-(4-isobutylphenyl)propionate]
5 patients on second batch active drug kits
  reduction of pain WOMAC from baseline to week 12: 81-98%
Day 1
  WOMAC Pain Subscale Score, Avg.: 59.2
  WOMAC Pain Subscale Score: 59.4
Follow-up
  WOMAC Pain Subscale Score, Avg.: 35.2
  WOMAC Pain Subscale Score, cohort Avg.: 39.7
  WOMAC Pain Subscale Score: 67.0
Week 2
  WOMAC Pain Subscale Score, Avg.: 46.6
  difference of LS mean (8.75 mg-control), change from baseline in WOMAC pain subscale score: 6.7 mm
  Change from baseline in WOMAC pain subscale score, LS mean (95% ci): −7.5 (−13.3, −1.7) mm
  difference of LS mean (testing Drug-control), change from baseline in WOMAC pain subscale score: −11.5 mm
  Change from baseline in WOMAC pain subscale score, LS mean: −15.6 mm
  WOMAC Pain Subscale Score, cohort Avg.: 48.6
Week 4
  WOMAC Pain Subscale Score, Avg.: 41.5
  difference of LS mean (8.75 mg-control), change from baseline in WOMAC pain subscale score: 10.5 mm
  Change from baseline in WOMAC pain subscale score, LS mean (95% ci): −10.6 (−17.1, −4.1) mm
  difference of LS mean (testing Drug-control), change from baseline in WOMAC pain subscale score: −12.8 mm
  Change from baseline in WOMAC pain subscale score, LS mean: −21.2 mm
  WOMAC Pain Subscale Score, cohort Avg.: 42.8
Week 8
  WOMAC Pain Subscale Score, Avg.: 37.0
  difference of LS mean (8.75 mg-control), change from baseline in WOMAC pain subscale score: 7.9 mm
  Change from baseline in WOMAC pain subscale score, LS mean (95% ci): −15.7 (−22.5, −8.8) mm
  difference of LS mean (testing Drug-control), change from baseline in WOMAC pain subscale score: −6.0 mm
  Change from baseline in WOMAC pain subscale score, LS mean: −24.0 mm
  WOMAC Pain Subscale Score, cohort Avg.: 38.4
Week 12
  WOMAC Pain Subscale Score, Avg.: 33.8
  WOMAC Pain Subscale Score, cohort Avg.: 38.2
Week 12/EOS
  difference of LS mean (8.75 mg-control), change from baseline in WOMAC pain subscale score: 8.6 mm
  Change from baseline in WOMAC pain subscale score, LS mean (95% ci): −16.1 (−23.6, −8.6) mm
  difference of LS mean (testing Drug-control), change from baseline in WOMAC pain subscale score: −4.1 mm
  Change from baseline in WOMAC pain subscale score, LS mean: −26.9 mm
Patient 1056, second batch active drug kits, Day 1
  WOMAC Pain Subscale, WOMAC VAS Score: 51.8 mm
Patient 1056, second batch active drug kits, Follow Up
  WOMAC Pain Subscale, WOMAC VAS Score: 10.0 mm
Patient 1056, second batch active drug kits, Week 2
  WOMAC Pain Subscale, WOMAC VAS Score: 31.0 mm
Patient 1056, second batch active drug kits, Week 4
  WOMAC Pain Subscale, WOMAC VAS Score: 22.6 mm
Patient 1056, second batch active drug kits, Week 8
  WOMAC Pain Subscale, WOMAC VAS Score: 28.0 mm
Patient 1056, second batch active drug kits, Week 12
  WOMAC Pain Subscale, WOMAC VAS Score: 12.0 mm
Patient 1064, second batch active drug kits, Day 1
  WOMAC Pain Subscale, WOMAC VAS Score: 32.6 mm
Patient 1064, second batch active drug kits, Follow Up
  WOMAC Pain Subscale, WOMAC VAS Score: 1.6 mm
Patient 1064, second batch active drug kits, Week 2
  WOMAC Pain Subscale, WOMAC VAS Score: 21.6 mm
Patient 1064, second batch active drug kits, Week 4
  WOMAC Pain Subscale, WOMAC VAS Score: 1.8 mm
Patient 1064, second batch active drug kits, Week 8
  WOMAC Pain Subscale, WOMAC VAS Score: 1.0 mm
Patient 1064, second batch active drug kits, Week 12
  WOMAC Pain Subscale, WOMAC VAS Score: 0 mm
Patient 1535, second batch active drug kits, Day 1
  WOMAC Pain Subscale, WOMAC VAS Score: 40.4 mm
Patient 1535, second batch active drug kits, Follow Up
  WOMAC Pain Subscale, WOMAC VAS Score: 0.0 mm
Patient 1535, second batch active drug kits, Week 2
  WOMAC Pain Subscale, WOMAC VAS Score: 2.8 mm
Patient 1535, second batch active drug kits, Week 4
  WOMAC Pain Subscale, WOMAC VAS Score: 2.6 mm
Patient 1535, second batch active drug kits, Week 8
  WOMAC Pain Subscale, WOMAC VAS Score: 4.0 mm
Patient 1535, second batch active drug kits, Week 12
  WOMAC Pain Subscale, WOMAC VAS Score: 0.6 mm
Patient 1539, second batch active drug kits, Day 1
  WOMAC Pain Subscale, WOMAC VAS Score: 63.0 mm
Patient 1539, second batch active drug kits, Follow Up
  WOMAC Pain Subscale, WOMAC VAS Score: 5.0 mm
Patient 1539, second batch active drug kits, Week 2
  WOMAC Pain Subscale, WOMAC VAS Score: 47.6 mm
Patient 1539, second batch active drug kits, Week 4
  WOMAC Pain Subscale, WOMAC VAS Score: 48.2 mm
Patient 1539, second batch active drug kits, Week 8
  WOMAC Pain Subscale, WOMAC VAS Score: 1.8 mm
Patient 1539, second batch active drug kits, Week 12
  WOMAC Pain Subscale, WOMAC VAS Score: 9.4 mm
Patient 9032, second batch active drug kits, Day 1
  WOMAC Pain Subscale, WOMAC VAS Score: 16.6 mm
Patient 9032, second batch active drug kits, Follow Up
  WOMAC Pain Subscale, WOMAC VAS Score: 3.0 mm
Patient 9032, second batch active drug kits, Week 2
  WOMAC Pain Subscale, WOMAC VAS Score: 11.2 mm
Patient 9032, second batch active drug kits, Week 4
  WOMAC Pain Subscale, WOMAC VAS Score: 6.2 mm
Patient 9032, second batch active drug kits, Week 8
  WOMAC Pain Subscale, WOMAC VAS Score: 4.4 mm
Patient 9032, second batch active drug kits, Week 12
  WOMAC Pain Subscale, WOMAC VAS Score: 3.2 mm

From patent US20240024273A1, “TOPICAL ADMINISTRATION OF 2-(DIETHYLAMINO)ETHYL 2-(4-ISOBUTYLPHENYL)PROPRIONATE FOR TREATMENT OF DISEASES” (TECHFIELDS PHARMA CO., LTD., priority 2020, published 2024)
